Test results from paper PMC6906431, “Selective small molecule PARG inhibitor causes replication fork stalling and cancer cell death” (Nature Communications, 2019).

What was measured:
[1] = tested on: MDA-MB-231 cells with scrambled shRNA (control); experiment: Cellular PARylation, anti-PAR immunoblot; type: cell-based, human
Experimental: Fig. 6 Selective inhibition of PARG by xanthine derivative JA2131. a Clonogenic survival assays of PC3, MDA-MB-231, and MCF-7 cells treated with PARGi. Cells were treated with either DMSO or 10 µM JA2131 for 2 h, irradiated with 3 Gy (MDA-MB-231 and MCF-7), 7 Gy (PC3) IR and grown for ~2 weeks, then colonies were fixed with methanol and stained with crystal violet. The results of three independent experiments are shown. Error bars = the standard error of the mean (SEM). b dose-response of JA2131 in MDA-MB-231 cells with and without IR. Cells were treated with designated concentrations of JA2131 for 2 h and then either left untreated or exposed to 3 Gy IR and allowed to recover for 1 h before lysis. Total protein was immunoblotted with anti-PAR antibody (upper panel), stripped and reprobed with anti-PCNA as a loading control. c MDA-MB-231 cells with stable scrambled shRNA (WT) or stable PARG shRNA, knockdown (KD), were treated with 5 μM JA2131 for 2 h, lysed and then total lysates were immunoblotted for anti-PAR (upper panel) followed by anti-PARG (upper middle panel), anti-PARP1 (lower middle panel) and anti-actin (bottom panel) antibody. […] Stable cells with scramble shRNA (control) and shPARG (PARG-KD) cells were treated with an increasing concentration of JA2131 for growth inhibitory IC50 determination. The data was normalized against 100% survival at the lowest inhibitor concentration. Error bars show the percent coefficient of variation. Equivalent concentrations of DMSO were used as a negative control. e The cytotoxicity of JA2131 along with PDD, Veliparib and Doxorubicin against MRC-5 cells. Error bars show the percent coefficient of variation. f CETSA for in-cell JA2131 target engagement. Normalized anti-PARG western blot intensities of three independent experiments were fitted as above and the estimated aggregation temperature (Tagg) is shown in the tabulated insert. Source Data are provided as a Source Data file.
Thus, dose-dependent JA2131-induced cellular PARylation with and without IR was investigated. For combined IR treatment, MDA-MB-231 cells were treated with JA2131 for 2 h, followed by […] X-ray and then allowed to recover for an hour before cellular extraction and western blotting analysis.
Using shRNA, next, we generated a stable MDA-MB-231 PARG knockdown (PARG-KD) cell-line (Supplementary Fig. 10). We compared PARGi JA2131-induced PARylation in PARG-KD and control cells. We reasoned that PARG-KD cells would show a reduced response to a selective PARGi as the stable PARG-KD cells would have to adopt a PARG-independent survival mechanism. MDA-MB-231 control cells and PARG-KD cells were treated with JA2131, then total cell lysates were subjected to immunoblotting with anti-PAR antibody, followed by immunodetection for anti-PARG, PARP1 and Actin antibody (Fig. 6c). […] Dose-response curves comparing control and PARG-KD cells further validate the selective action of JA2131 on control cells expressing PARG, but not on the PARG-KD cells (Supplementary Fig. 12).
Cells were grown in 6-well plates and 10 cm dishes, treated with PARGi for 2 h, irradiated and recovered for 1 h before harvesting. Cells were irradiated, ranging from 1 to 10 Gy using RAD SOURCE, RS-2000, Biological System, RadSource.com. Cells were washed with phosphate buffer and saline (PBS) and lysed with buffer containing 50 mM Hepes, pH 7.5, 1% (vol/vol) igepal-C630, 1 mg/ml bacitracin, 1 mM EDTA, 10 mM NaF, 1 mM sodium orthovanadate, 10% (vol/vol) glycerol, 50 mM NaCl, 1 mM PMSF, and Protease Inhibitor Cocktail Set III (EMD Millipore). The detergent-soluble fraction was used for western blotting. Cell fractionation was carried out using the Subcellular Protein Fractionation Kit, (#78840, ThermoFisher) according to the manufacturer’s instruction. Primary antibodies were purchased from the following sources; Actin, GAPDH, γH2AX and Histone-H3 was from Cell Signaling Technology. H2AX and LAMB1 were from Invitrogen/ThermoFisher. […]

[2] = tested on: PC3 cells; experiment: Sulforhodamine B (SRB) cytotoxicity assay; conditions: Homo sapiens, PC-3, 72 h
[3] = Sulforhodamine B (SRB) cytotoxicity assay; conditions: human, PC3 cells, Viability; for viability at 72 h, 1.95 µM: log [concentration] μM 0.291; for viability at 72 h, 3.9 µM: log [concentration] μM 0.592; for viability at 72 h, 7.8 µM: log [concentration] μM 0.893; for viability at 72 h, 15.6 µM: log [concentration] μM 1.194; for viability at 72 h, 31.3 µM: log [concentration] μM 1.495; for viability at 72 h, 62.5 µM: log [concentration] μM 1.796; for viability at 72 h, 125 µM: log [concentration] μM 2.097; for viability at 72 h, 250 µM: log [concentration] μM 2.398; for viability at 72 h, 500 µM: log [concentration] μM 2.699; for viability at 72 h, 0.98 µM: log [concentration] μM -0.01; for viability at 72 h, 0.49 µM: log [concentration] μM -0.312; for viability at 72 h, 0.244 µM: log [concentration] μM -0.613
[4] = target: T1, PCNA in PC3 cells (Homo sapiens, UniProt P12004); experiment: Cellular thermal shift assay (CETSA), control protein; type: cell-based; conditions: 10 μM JA2131
T1 construct: endogenous in cells; host or cells: PC3
T1 sequence (P12004 whole entry): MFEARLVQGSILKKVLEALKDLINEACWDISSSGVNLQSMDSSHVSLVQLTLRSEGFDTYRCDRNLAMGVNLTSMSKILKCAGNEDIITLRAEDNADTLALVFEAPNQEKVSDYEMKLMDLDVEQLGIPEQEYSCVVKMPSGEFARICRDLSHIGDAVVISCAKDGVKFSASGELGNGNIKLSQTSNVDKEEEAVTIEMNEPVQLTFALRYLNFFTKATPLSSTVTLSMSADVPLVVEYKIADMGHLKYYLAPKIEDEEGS
Experimental: CETSA was performed as described by Molina et al.[44]. Briefly, PC3 cells were treated with 10 μM JA2131 or an equivalent volume of DMSO for 2 h, washed three times with PBS and extracted for total cell lysate. Ten percent glycerol was added to the samples before subjecting to heat. […] Then, samples were centrifuged at 14,000 rpm for 20 min at 4 °C. Supernatants were carefully removed and analyzed by western blotting analysis.
Supplementary Fig. 14: Representative CETSA western blots for PARG and PCNA. PC3 cells
treated with 10 µM JA2131 or DMSO were temperature shocked as described in Materials and […]
PCNA antibody. Anti -Histone H3 was used as loading control.
(1 picture or pasted object on this page, not shown here)

- Band intensities, anti-PCNA ([4]; Temperature 4 °C): 100
- Band intensities, anti-PCNA ([4]; Temperature 51 °C): 91.1484
- Band intensities, anti-PCNA ([4]; Temperature 62 °C): 38.4112
- Band intensities, anti-PCNA ([4]; Temperature 68 °C): 12.3183
- Band intensities, anti-PCNA ([4]; Temperature 72 °C): 4.285
- Band intensities, anti-PCNA ([4]; Temperature 77 °C): 3.2332
- Band intensities, anti-PCNA ([4]; Temperature 85 °C): 4.145
SMILES: Cn1c(=S)c2[nH]c(SCCN3CCOCC3)nc2n(C)c1=O [JA2131]
- anti-PAR western blot band, Normalized ([1]; 5 μM JA2131 2 h, Ci-DMSO = 1): 6.313
- anti-PAR western blot band, Intensity inversion ([1]; 5 μM JA2131 2 h, ImageJ): 0.006671
- anti-PAR western blot band, Neg. substracted ([1]; 5 μM JA2131 2 h, ImageJ): 0.001364
- anti-PAR western blot band, mean int. ([1]; 5 μM JA2131 2 h, ImageJ): 149.9
- PAR accumulation after treatment ([1]; 5 μM, 2 h): a measurable increase in PAR
- cellular PARylation ([1]; JA2131 2 h combined with IR, 1 h recovery): massive increase in cellular PARylation at 100 nM
- cellular PARylation ([1]; JA2131 alone, 2 h): dose-dependent increase in cellular PARylation between 1 μM and 5 μM doses
- IC50 ([2]; with 7 Gy IR): 41.6 ± 3 µM
- IC50 ([2]; without IR): 33 ± 2.4 µM
- viability at 72 h, 1.95 µM ([3]; +IR 7 Gy): 104%
- viability at 72 h, 3.9 µM ([3]; +IR 7 Gy): 99.5%
- viability at 72 h, 7.8 µM ([3]; +IR 7 Gy): 103%
- viability at 72 h, 15.6 µM ([3]; +IR 7 Gy): 96.6%
- viability at 72 h, 31.3 µM ([3]; +IR 7 Gy): 76.7%
- viability at 72 h, 62.5 µM ([3]; +IR 7 Gy): 32.5%
- viability at 72 h, 125 µM ([3]; +IR 7 Gy): 13.6%
- viability at 72 h, 250 µM ([3]; +IR 7 Gy): 16.8%
- viability at 72 h, 500 µM ([3]; +IR 7 Gy): 13%
- viability at 72 h, 0.98 µM ([3]; +IR 7 Gy): 102%
- viability at 72 h, 0.49 µM ([3]; +IR 7 Gy): 100%
- viability at 72 h, 0.244 µM ([3]; +IR 7 Gy): 100%
- viability at 72 h, 1.95 µM ([3]; without IR): 97.5%
- viability at 72 h, 3.9 µM ([3]; without IR): 97.3%
- viability at 72 h, 7.8 µM ([3]; without IR): 94.1%
- viability at 72 h, 15.6 µM ([3]; without IR): 88.1%
- viability at 72 h, 31.3 µM ([3]; without IR): 57.2%
- viability at 72 h, 62.5 µM ([3]; without IR): 6.73%
- viability at 72 h, 125 µM ([3]; without IR): 4.07%
- viability at 72 h, 250 µM ([3]; without IR): 4.3%
- viability at 72 h, 500 µM ([3]; without IR): 4.21%
- viability at 72 h, 0.98 µM ([3]; without IR): 99.2%
- viability at 72 h, 0.49 µM ([3]; without IR): 98.7%
- viability at 72 h, 0.244 µM ([3]; without IR): 100%
- change in thermal stability of PCNA control [4]: no significant change in thermal stability
